Legend:
Format in all cases: cell-based
HTT AJ mRNA = test: RT-qPCR splicing assay, HTT alternative junction (AJ) mRNA increase; conditions: A673 or K562 cells, 24 hours compound treatment, top dose 10 uM; concentration having 50% response in AJ increase
Protocol: (§1) Compounds described herein were used to modulate RNA transcript abundance in cells. The expression of a target mRNA was measured by detecting the formation of an exon-exon junction in the canonical transcript (CJ). A compound mediated exon-inclusion event was detected by observing an increase in formation of a new junction with an alternative exon (AJ). Real-time qPCR assays were used to detect these splicing switches and interrogate the potency of various compounds towards different target genes. A high-throughput real time quantitative PCR (RT-qPCR) assay was developed to measure these two isoforms of the mRNA (CJ and AJ) for an exemplary gene, HTT, together with a control housekeeping gene, GAPDH or GUSB or PPIA, used for normalization. Briefly, the A673 or K562 cell line was treated with various compounds described herein (e.g., compounds of Formula (I) or (II)). After treatment, the levels of the HTT mRNA targets were determined from each sample of cell lysate by cDNA synthesis followed by qPCR.
(§2) The A673 cell line was cultured in DMEM with 10% FBS. Cells were diluted with full growth media and plated in a 96-well plate (15,000 cells in 100 ul media per well). The plate was incubated at 37° C. with 5% CO2 for 24 hours to allow cells to adhere. An 11-point 3-fold serial dilution of the compounds was made in DMSO then diluted in media in an intermediate plate. Compounds were transferred from the intermediate plate to the cell plate with the top dose at a final concentration of 10 uM in the well. Final DMSO concentration was kept at or below 0.25%. The cell plate was returned to the incubator at 37° C. with 5% CO2 for an additional 24 hours.
(§3) The K562 cell line was cultured in IMDM with 10% FBS. For K562, cells were diluted with full growth media and plated in either a 96-well plate (50,000 cells in 50 uL media per well) or a 384-well plate (8,000-40,000 cells in 45 uL media per well). An 11-point 3-fold serial dilution of the compounds were made in DMSO then diluted in media in an intermediate plate. Compound was transferred from the intermediate plate to the cell plate with the top dose at a final concentration of 10 uM in the well. Final DMSO concentration was kept at or below 0.25%. Final volume was 100 uL for 96-well plate and 50 uL for 384-well plate. The cell plate was then placed in an incubator at 37° C. with 5% CO2 for 24 hours.
(§4) The cells were then gently washed with 50 uL-100 uL cold PBS before proceeding to addition of lysis buffer. 30 uL-50 uL of room temperature lysis buffer with DNAse I (and optionally RNAsin) was added to each well. Cells were shaken/mixed thoroughly at room temperature for 5-10 minutes for lysis to take place and then 3 uL-5 uL of room temperature stop solution was added and wells were shaken/mixed again. After 2-5 minutes, the cell lysate plate was transferred to ice for RT-qPCR reaction setup. The lysates could also be frozen at −80° C. for later use.
(§5) In some cases, a direct lysis buffer was used. An appropriate volume of 3× lysis buffer (10 mM Tris, 150 mM NaCl, 1.5%-2.5% Igepal and 0.1-1 U/uL RNAsin, pH 7.4) was directly added to either K562 or A673 cells in media and mixed by pipetting 3 times. The plates were then incubated at room temperature with shaking/rocking for 20-50 minutes to allow for lysis to take place. After this time, the cell lysate plate was transferred to ice to set up for the RT-qPCR reactions. The lysates could also be frozen at −80° C. for later use.
(§6) To set up 10 uL RT-qPCR reactions, cell lysates were transferred to 384-well qPCR plates containing the master mix according to the table below. The plates were sealed, gently vortexed, and spun down before the run. The volumes were adjusted accordingly in some instances where the reaction was carried in 20 uL. The table below summarizes the components of the RT-qPCR reactions:
(§7) The RT-qPCR reaction was performed using a QuantStudio (ThermoFisher) under the following fast cycling conditions. […]

HTT CJ mRNA [1] = test: Gene panel canonical junction qPCR assay, HTT; conditions: protocol as above, concentration having 50% response in CJ decrease, read-out: HTT IC50 (decrease in CJ mRNA levels)
Protocol: as §1, §2, §3, §4, §5, §6, §7

SMN2 CJ mRNA = test: Gene panel canonical junction qPCR assay, SMN2; conditions: protocol as above, concentration having 50% response in CJ decrease, read-out: SMN2 IC50 (decrease in CJ mRNA levels)
Protocol: as §1, with “After treatment, the levels of the HTT mRNA targets were determined from each sample of cell lysate by cDNA synthesis followed by qPCR.” left out
as §2, §3, §4, §5, §6
The RT-qPCR reaction was performed using a QuantStudio (ThermoFisher) under the following fast cycling conditions. All samples and standards were analyzed at least in duplicate. […]

HTT CJ mRNA [2] = test: RT-qPCR splicing assay, HTT canonical junction (CJ) mRNA decrease; conditions: A673 or K562 cells, 24 hours compound treatment, top dose 10 uM; concentration having 50% response in CJ decrease
Protocol: as §1, §2, §3, §4, §5, §6, §7

Target C CJ mRNA = test: Gene panel canonical junction qPCR assay, Target C; conditions: protocol as above, concentration having 50% response in CJ decrease, read-out: Target C IC50 (decrease in CJ mRNA levels)
Protocol: as §1, §2, §3, §4, §5, §6, §7

Cc1cc(-c2nc3cc(N4CCNCC4)ccc3c(=O)[nH]2)cc2cn(C)nc12 [Compound 213, 2-(2,7-dimethyl-2H-indazol-5-yl)-7-(piperazin-1-yl)quinazolin-4(3H)-one]
> 10 µM: AC50 (HTT AJ mRNA) | IC50 (HTT CJ mRNA [1]) | IC50 (SMN2 CJ mRNA) | AC50 (HTT CJ mRNA [2]) | IC50 (Target C CJ mRNA)

Cc1cc(-c2nc3cc(N4CCN(C)CC4)ccc3c(=O)[nH]2)cc2cn(C)nc12 [Compound 214, 2-(2,7-dimethyl-2H-indazol-5-yl)-7-(4-methylpiperazin-1-yl)quinazolin-4(3H)-one]
> 10 µM: AC50 (HTT AJ mRNA) | IC50 (HTT CJ mRNA [1]) | IC50 (SMN2 CJ mRNA) | AC50 (HTT CJ mRNA [2]) | IC50 (Target C CJ mRNA)

— patent US20230167093A1, “COMPOUNDS AND METHODS FOR MODULATING SPLICING” (REMIX THERAPEUTICS INC., priority 2020, published 2023)
